Patent publication US12427155B2, “Treatment for tau-related diseases” (The Regents of the University of California, priority 2019, dated 2025)
Entries after “also recorded” stand apart in the source; their conditions may differ. Like-named read-outs stand apart in the source and are kept apart here. Where a SMILES comes first, the peptide text is derived from it. The star is where a group is joined. Cbz = O=C(OCc1ccccc1)*

How the values were obtained:
[1] = system: pThr231Tau/tTau; experiment: pThr231Tau/tTau ratio (ELISA) in APP^dp iPSC-derived FAD neurons; assay type: cell-based, human; details: for abrogation of the atorvastatin-induced decrease in pThr231Tau/tTau ratio: 3 days; for pThr231Tau/tTau, dosage effect: dose range
[2] = system: APP^dp1-6 neurons; experiment: lipid analysis of APP^dp1-6 neurons; assay type: cell-based, human; details: 3 days
[3] = system: Tau (PHF-1); experiment: PHF-1 (Tau) staining of 4RTau-tg mouse brain sections; assay type: in vivo; details: 4R Tau-tg mice, 25 mg/kg daily oral gavage, 3 months
Procedure: FIGS. 7A-7D show PHF-1 staining of 4RTau-tg mouse sections. […] (FIG. 7A) Representative sections stained for PHF-1. Low power images show areas of enlargements where measurements were obtained. (FIGS. 7B-7D) Sections were analyzed with video bright field microscopy and immunoreactivity was quantified as corrected optical density. * indicated p<0.05 compared to vehicle treated 4RTau-tg mice, ** indicates p<0.005 compared to vehicle treated 4RTau-tg mice. Scale bar=200 μm in low power images and 20 μm in higher power images.
Following treatment, mice were sacrificed, brains removed and sectioned along the sagittal axis with half flash frozen and half drop fixed in 4% PFA. Fixed brains were sectioned with a vibratome (40 μm) and stained for GFAP, PHF1 (Tau) or Synaptophysin. Sections were imaged with a Leica microscope with a digital camera and analyzed with ImageJ for optical density (GFAP, Synaptophysin) or % area of neuropil (PHF1). Statistics were conducted with Prism6 using ANOVA one way analysis with Tukey-Kramer post hoc analysis.

[4] = system: pThr231Tau/tTau; experiment: pThr231Tau/tTau in non-demented control (NDC) neurons; details: NDC neurons with two copies of APP
[5] = system: APP^dp1-6 neurons
[6] = system: pTau; experiment: immunofluorescence of pTau epitopes in APP^dp1-6 neurons; assay type: cell-based, human; details: 10 μM, 5 days
Source text: Vehicle alone controls (DMSO) are shown in black. […] SER, selective estrogen […] (n=4). […] NF—H, neurofilament H, axonal marker. The pThr231Tau antibody used is TG3, which detects a conformational epitope of pThr231Tau. Scale bar, 100 μm.

[7] = system: Aβ42 secretion; experiment: secreted Aβ42 in APP-Δcholesterol neurons; assay type: cell-based, human; details: APP E693A and F691A+E693A neurons, 10 μM, 3 days
Source text: FIGS. 4A-4F show regulation of Aβ by CE Is Mediated by a Cholesterol Binding Domain in APP. […] Green indicates amino acid sequence. Red arrow indicates CRISPR/Cas9 cut site. […] Two E693A (line 3D9 and 2B2) and one F691A+E693A line (line D12) were generated, as well as two non-gene-edited, but clonally expanded, WT lines (B10 and B11). FIGS. 4D-4F show measurements made using APP-Δcholesterol neurons with the following genotypes: WT (average from 2 independent lines), E693A (2 independent lines), and F691A+E693A (1 line) (mean±SEM, n R 3 per line). (D) Relative secreted Ab42 levels in conditioned media from purified CD184^−, CD44^−, and CD24^+ neurons (mean±SEM, n≥3 per line).

[8] = system: iPSC-derived astrocytes
Source text: Scale bar, 10 μm. […] Astrocytic viability (blue line) was plotted against results from FIGS. 1D and S1A for statins (neuronal viability and pThr231Tau/Tau ratio).

[9] = system: APP^dp1-6 neurons; experiment: cell viability of APP^dp1-6 iPSC-derived neurons; details: dose range
[10] = lower concentrations that sufficed to alter brain cholesterol metabolism; Mast et al., 2017b; cited from earlier work
[11] = human, in vivo; cited from earlier work
[12] = APP^dp1-6 neurons, 10 μM (FIG. 2C)
[13] = 0.5 mM single dose at t=0, with atorvastatin 10 μM, 5 days

Cc1cc(SCc2sc(-c3ccc(C(F)(F)F)cc3)nc2C)ccc1OCC(=O)O [GW50156]
pThr231Tau/tTau [1, 12]: did not decrease

mevalonate [MVA]
rescue of the effect of atorvastatin on pThr231Tau/tTau [1, 13]: rescued

O=S(=O)(c1ccccc1)N(CC(F)(F)F)c1ccc(C(O)(C(F)(F)F)C(F)(F)F)cc1 [T091317]
pThr231Tau/tTau [1, 12]: reduced
24-hydroxycholesterol in media ([2]; 10 μM): unaltered
desmosterol levels ([2]; 10 μM): decreased

CC(C)c1nc(N(C)S(C)(=O)=O)nc(-c2ccc(F)cc2)c1/C=C/[C@@H](O)C[C@@H](O)CC(=O)O [rosuvastatin]
pThr231Tau/tTau, confirmed non-toxic screening hit ([1]; APP^dp1-6 neurons, 5 μM, 5 days): hit-list

COc1ccc2cc3[n+](cc2c1OC)CCc1cc2c(cc1-3)OCO2 [Berberine]
Tau accumulation in the CA1 region of the hippocampus [3]: no change

C[C@@](O)(CCOP(=O)(O)OP(=O)(O)O)CC(=O)O [MVA-5PP, mevalonate-5-pyrophosphate]
rescue of the effect of atorvastatin on pThr231Tau/tTau [1]: rescued

C[C@@](O)(CCOP(=O)(O)O)CC(=O)O [MVP, mevalonate-5-phosphate]
rescue of the effect of atorvastatin on pThr231Tau/tTau [1, 13]: rescued

CC(C)c1cc(C(C)C)c(CC(=O)NS(=O)(=O)Oc2c(C(C)C)cccc2C(C)C)c(C(C)C)c1 [avasimibe]
pThr231Tau/tTau ([1]; APP^dp1-6 neurons, 10 μM, 5-day treatment (FIG. 2G)): reduced
pThr231Tau/tTau [4]: reduced

F/C(COc1ccc2c(c1)[nH]c1ccccc12)=C1/CN2CCC1CC2 [YM-53601]
pThr231Tau/tTau ([1]; APP^dp1-6 neurons, 20 μM (FIG. 2C)): did significantly decrease

CC(C)C(O)CC[C@@H](C)[C@H]1CC[C@H]2[C@@H]3CC=C4C[C@@H](O)CC[C@]4(C)[C@H]3CC[C@]12C (some centres unmarked) [24-hydroxycholesterol]
pThr231Tau/tTau [1, 12]: reduced

Clc1ccccc1CNCC1CCC(CNCc2ccccc2Cl)CC1 (centres unmarked) [AY-9944]
pThr231Tau/tTau [1, 12]: did significantly decrease; also recorded: minor effect
7DHC levels ([2]; 5 μM): increased
24-hydroxycholesterol in media ([2]; 5 μM): decreased
desmosterol levels ([2]; 5 μM): reduced
free cholesterol levels ([2]; 5 μM): reduced

C=C1[C@@H](O)[C@@H]2O[C@]3(CC[C@H](/C=C/[C@@H](C)[C@@H]4CC(C)=C[C@@]5(O[C@H](C[C@@](C)(O)C(=O)O)CC[C@H]5O)O4)O3)CC[C@H]2O[C@@H]1[C@@H](O)C[C@H](C)[C@H]1O[C@@]2(CCCCO2)CC[C@H]1C [okadaic acid]
abrogation of the atorvastatin-induced decrease in pThr231Tau/tTau ratio ([1]; 1.25 nM co-treated with atorvastatin 10 μM): Only proteasomal inhibition abrogated the decrease

COC(=O)[C@H](CC(C)C)NC(=O)c1ccc(NC[C@@H](N)CS)cc1-c1cccc2ccccc12 [GGTI-298]
pThr231Tau/tTau [1, 12]: did not significantly reduce

CC[C@H](C)C(=O)O[C@H]1CCC=C2C=C[C@H](C)[C@H](CC[C@@H]3C[C@@H](O)CC(=O)O3)[C@H]21 [mevastatin]
pThr231Tau/tTau, dosage effect ([1]; APP^dp1-6 neurons): reduced pThr231Tau/tTau in a dose-dependent manner
cell viability or neuronal number [5]: minor effects

CC(C)c1c(C(=O)Nc2ccccc2)c(-c2ccccc2)c(-c2ccc(F)cc2)n1CC[C@@H](O)C[C@@H](O)CC(=O)O [atorvastatin]
pThr231Tau/Tau after removal of compound ([1]; removal after five days of treatment): recovery
pS202/T205Tau by immunofluorescence [6]: reduced
pS396/S404Tau by immunofluorescence [6]: reduced
pThr231 phosphorylation-dependent conformational Tau epitope (TG3) by immunofluorescence [6]: reduced
7DHC levels ([2]; 10 μM): trended towards decreased
24-hydroxycholesterol in media ([2]; 10 μM): unaltered
desmosterol levels ([2]; 10 μM): reduced
Aβ42 secretion [7]: did not affect
astrocyte viability [8]: induced major astrocyte cell-death
cell viability or neuronal number [9]: slightly cytotoxic at higher concentrations
pThr231Tau/tTau [4]: reduced

CC[C@H](C)C(=O)O[C@H]1C[C@@H](C)C=C2C=C[C@H](C)[C@H](CC[C@@H]3C[C@@H](O)CC(=O)O3)[C@H]21 [lovastatin]
pThr231Tau/tTau, dosage effect ([1]; APP^dp1-6 neurons): reduced pThr231Tau/tTau in a dose-dependent manner
cell viability or neuronal number [9]: minor effects

O=C1Nc2ccc(Cl)cc2[C@@](C#CC2CC2)(C(F)(F)F)O1 [efavirenz, (S)-6-chloro-(cyclopropylethynyl)-1,4-dihydro-4-(trifluoromethyl)-2H-3,1-benzoxazin-2-one]
astrocyte viability [8]: did not affect astrocyte viability even at high doses
adverse effects in mice [10]: Major adverse effects were not observed
adverse effects in HIV patients [11]: significant adverse effects that include neurotoxicity

CC(C)C[C@@H](C=O)NC(=O)[C@H](CC(C)C)NC(=O)[C@H](CC(C)C)NC(=O)OCc1ccccc1 [MG132] (Cbz-Leu-Leu-Leu-aldehyde)
abrogation of the atorvastatin-induced decrease in pThr231Tau/tTau ratio ([1]; 5 μM co-treated with atorvastatin 10 μM): abrogated the decrease

CSc1cc(C)nc(SC)c1NC(=O)CN1CCN(CCSc2nc3ccccc3[nH]2)CC1 [K604]
pThr231Tau/tTau ([1]; APP^dp1-6 neurons, 25 μM, 5-day treatment (FIG. 2G)): reduced
pThr231Tau/tTau [4]: reduced
